In the NIST ThermoML archive (doi:10.1016/j.jct.2004.03.011):

Test: xn = mol fraction of the nth substance listed
Conditions: Liquid

CO [methanol] + O
excess molar volume [m3/mol]
Conditions	298.15 K	323.15 K	348.15 K	373.15 K	398.15 K	423.15 K	448.15 K	473.15 K	498.15 K	523.15 K
100 kPa, x1 = 0.25	-7.42e-07	-7.75e-07	–	–	–	–	–	–	–	–
100 kPa, x1 = 0.5	-1.014e-06	-1.049e-06	–	–	–	–	–	–	–	–
100 kPa, x1 = 0.75	-7.05e-07	-7.38e-07	–	–	–	–	–	–	–	–
5000 kPa, x1 = 0.25	-7.13e-07	-7.41e-07	-7.75e-07	-8.26e-07	-8.9e-07	-9.81e-07	-1.223e-06	-1.902e-06	–	–
5000 kPa, x1 = 0.5	-9.63e-07	-9.91e-07	-1.022e-06	-1.082e-06	-1.146e-06	-1.247e-06	-1.583e-06	-2.545e-06	–	–
5000 kPa, x1 = 0.75	-6.74e-07	-7.02e-07	-7.58e-07	-8.14e-07	-8.68e-07	-9.59e-07	-1.163e-06	-1.736e-06	–	–
10000 kPa, x1 = 0.25	-6.85e-07	-7.07e-07	-7.33e-07	-7.67e-07	-8.12e-07	-8.74e-07	-9.78e-07	-1.285e-06	-2.081e-06	–
10000 kPa, x1 = 0.5	-9.15e-07	-9.36e-07	-9.61e-07	-9.85e-07	-1.017e-06	-1.072e-06	-1.246e-06	-1.616e-06	-2.481e-06	–
10000 kPa, x1 = 0.75	-6.44e-07	-6.7e-07	-7.12e-07	-7.46e-07	-7.89e-07	-8.43e-07	-9.16e-07	-1.12e-06	-1.949e-06	–
20000 kPa, x1 = 0.25	-6.27e-07	-6.4e-07	-6.5e-07	-6.6e-07	-6.68e-07	-6.78e-07	-7.11e-07	-8e-07	-8.98e-07	-1.217e-06
20000 kPa, x1 = 0.5	-8.31e-07	-8.38e-07	-8.45e-07	-8.51e-07	-8.57e-07	-8.64e-07	-8.73e-07	-8.91e-07	-9.52e-07	-1.421e-06
20000 kPa, x1 = 0.75	-5.93e-07	-6.05e-07	-6.23e-07	-6.44e-07	-6.56e-07	-6.65e-07	-6.88e-07	-7.38e-07	-8.16e-07	-1.204e-06
30000 kPa, x1 = 0.25	-5.75e-07	-5.74e-07	-5.73e-07	-5.71e-07	-5.68e-07	-5.65e-07	-5.62e-07	-5.58e-07	-5.54e-07	-5.47e-07
30000 kPa, x1 = 0.5	-7.62e-07	-7.51e-07	-7.38e-07	-7.26e-07	-7.09e-07	-6.92e-07	-6.64e-07	-6.29e-07	-5.87e-07	-5.46e-07
30000 kPa, x1 = 0.75	-5.53e-07	-5.49e-07	-5.37e-07	-5.28e-07	-5.19e-07	-5.12e-07	-4.93e-07	-4.65e-07	-4.28e-07	-3.91e-07
40000 kPa, x1 = 0.25	-5.29e-07	-5.2e-07	-5.12e-07	-5.07e-07	-4.94e-07	-4.81e-07	-4.64e-07	-4.41e-07	-4.12e-07	-3.76e-07
40000 kPa, x1 = 0.5	-7.02e-07	-6.85e-07	-6.67e-07	-6.47e-07	-6.14e-07	-5.71e-07	-5.13e-07	-4.66e-07	-4.01e-07	-3.36e-07
40000 kPa, x1 = 0.75	-5.14e-07	-5.02e-07	-4.81e-07	-4.58e-07	-4.35e-07	-4.2e-07	-3.86e-07	-3.3e-07	-2.7e-07	-2.01e-07
50000 kPa, x1 = 0.25	-4.85e-07	-4.75e-07	-4.64e-07	-4.52e-07	-4.33e-07	-4.13e-07	-3.89e-07	-3.59e-07	-3.26e-07	-2.77e-07
50000 kPa, x1 = 0.5	-6.49e-07	-6.32e-07	-6.06e-07	-5.81e-07	-5.37e-07	-4.75e-07	-4.04e-07	-3.42e-07	-2.68e-07	-1.97e-07
50000 kPa, x1 = 0.75	-4.65e-07	-4.55e-07	-4.4e-07	-4.14e-07	-3.8e-07	-3.49e-07	-3e-07	-2.37e-07	-1.6e-07	-8.4e-08
60000 kPa, x1 = 0.25	-4.61e-07	-4.39e-07	-4.23e-07	-4.05e-07	-3.83e-07	-3.56e-07	-3.27e-07	-2.9e-07	-2.45e-07	-1.86e-07
60000 kPa, x1 = 0.5	-6.02e-07	-5.84e-07	-5.58e-07	-5.21e-07	-4.75e-07	-4.01e-07	-3.18e-07	-2.41e-07	-1.61e-07	-8.4e-08
60000 kPa, x1 = 0.75	–	-4.28e-07	-4.06e-07	-3.72e-07	-3.33e-07	-2.84e-07	-2.23e-07	-1.58e-07	-8.4e-08	-5e-09
